In patent US8697739B2, “Bicyclic acetyl-CoA carboxylase inhibitors and uses thereof” (Novartis AG, priority 2010, dated 2014):

molecular target: T1, human acetyl-CoA carboxylase 2 (ACC2) (Homo sapiens, UniProt O00763); test: Acetyl-CoA carboxylase enzyme assay (malonyl-CoA formation by LC/MS/MS); assay type: biochemical; conditions: recombinant human ACC2 (aa 144-2458); read-out: IC50 ACC2
T1 construct: The cDNA encoding amino acids 144 to 2458 of human acetyl-CoA carboxylase 2; made in house; host or cells: Sf9 insect cells (baculovirus, pFastBac1)
Procedure, shortened: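 Malonyl-CoA formation was read by LC/MS/MS MRM against a [13C3]-malonyl-CoA internal standard, after acetic acid quench. The enzyme was baculovirus/Sf9-expressed human ACC2 residues 144–2458, given 15 minutes room-temperature compound preincubation in HEPES pH 7.5 buffer with MgCl2, citrate and DTT. Substrate solution held 50 μM acetyl-CoA, 120 μM ATP and 2 mM KHCO3.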

T1 sequence (O00763 144-2458): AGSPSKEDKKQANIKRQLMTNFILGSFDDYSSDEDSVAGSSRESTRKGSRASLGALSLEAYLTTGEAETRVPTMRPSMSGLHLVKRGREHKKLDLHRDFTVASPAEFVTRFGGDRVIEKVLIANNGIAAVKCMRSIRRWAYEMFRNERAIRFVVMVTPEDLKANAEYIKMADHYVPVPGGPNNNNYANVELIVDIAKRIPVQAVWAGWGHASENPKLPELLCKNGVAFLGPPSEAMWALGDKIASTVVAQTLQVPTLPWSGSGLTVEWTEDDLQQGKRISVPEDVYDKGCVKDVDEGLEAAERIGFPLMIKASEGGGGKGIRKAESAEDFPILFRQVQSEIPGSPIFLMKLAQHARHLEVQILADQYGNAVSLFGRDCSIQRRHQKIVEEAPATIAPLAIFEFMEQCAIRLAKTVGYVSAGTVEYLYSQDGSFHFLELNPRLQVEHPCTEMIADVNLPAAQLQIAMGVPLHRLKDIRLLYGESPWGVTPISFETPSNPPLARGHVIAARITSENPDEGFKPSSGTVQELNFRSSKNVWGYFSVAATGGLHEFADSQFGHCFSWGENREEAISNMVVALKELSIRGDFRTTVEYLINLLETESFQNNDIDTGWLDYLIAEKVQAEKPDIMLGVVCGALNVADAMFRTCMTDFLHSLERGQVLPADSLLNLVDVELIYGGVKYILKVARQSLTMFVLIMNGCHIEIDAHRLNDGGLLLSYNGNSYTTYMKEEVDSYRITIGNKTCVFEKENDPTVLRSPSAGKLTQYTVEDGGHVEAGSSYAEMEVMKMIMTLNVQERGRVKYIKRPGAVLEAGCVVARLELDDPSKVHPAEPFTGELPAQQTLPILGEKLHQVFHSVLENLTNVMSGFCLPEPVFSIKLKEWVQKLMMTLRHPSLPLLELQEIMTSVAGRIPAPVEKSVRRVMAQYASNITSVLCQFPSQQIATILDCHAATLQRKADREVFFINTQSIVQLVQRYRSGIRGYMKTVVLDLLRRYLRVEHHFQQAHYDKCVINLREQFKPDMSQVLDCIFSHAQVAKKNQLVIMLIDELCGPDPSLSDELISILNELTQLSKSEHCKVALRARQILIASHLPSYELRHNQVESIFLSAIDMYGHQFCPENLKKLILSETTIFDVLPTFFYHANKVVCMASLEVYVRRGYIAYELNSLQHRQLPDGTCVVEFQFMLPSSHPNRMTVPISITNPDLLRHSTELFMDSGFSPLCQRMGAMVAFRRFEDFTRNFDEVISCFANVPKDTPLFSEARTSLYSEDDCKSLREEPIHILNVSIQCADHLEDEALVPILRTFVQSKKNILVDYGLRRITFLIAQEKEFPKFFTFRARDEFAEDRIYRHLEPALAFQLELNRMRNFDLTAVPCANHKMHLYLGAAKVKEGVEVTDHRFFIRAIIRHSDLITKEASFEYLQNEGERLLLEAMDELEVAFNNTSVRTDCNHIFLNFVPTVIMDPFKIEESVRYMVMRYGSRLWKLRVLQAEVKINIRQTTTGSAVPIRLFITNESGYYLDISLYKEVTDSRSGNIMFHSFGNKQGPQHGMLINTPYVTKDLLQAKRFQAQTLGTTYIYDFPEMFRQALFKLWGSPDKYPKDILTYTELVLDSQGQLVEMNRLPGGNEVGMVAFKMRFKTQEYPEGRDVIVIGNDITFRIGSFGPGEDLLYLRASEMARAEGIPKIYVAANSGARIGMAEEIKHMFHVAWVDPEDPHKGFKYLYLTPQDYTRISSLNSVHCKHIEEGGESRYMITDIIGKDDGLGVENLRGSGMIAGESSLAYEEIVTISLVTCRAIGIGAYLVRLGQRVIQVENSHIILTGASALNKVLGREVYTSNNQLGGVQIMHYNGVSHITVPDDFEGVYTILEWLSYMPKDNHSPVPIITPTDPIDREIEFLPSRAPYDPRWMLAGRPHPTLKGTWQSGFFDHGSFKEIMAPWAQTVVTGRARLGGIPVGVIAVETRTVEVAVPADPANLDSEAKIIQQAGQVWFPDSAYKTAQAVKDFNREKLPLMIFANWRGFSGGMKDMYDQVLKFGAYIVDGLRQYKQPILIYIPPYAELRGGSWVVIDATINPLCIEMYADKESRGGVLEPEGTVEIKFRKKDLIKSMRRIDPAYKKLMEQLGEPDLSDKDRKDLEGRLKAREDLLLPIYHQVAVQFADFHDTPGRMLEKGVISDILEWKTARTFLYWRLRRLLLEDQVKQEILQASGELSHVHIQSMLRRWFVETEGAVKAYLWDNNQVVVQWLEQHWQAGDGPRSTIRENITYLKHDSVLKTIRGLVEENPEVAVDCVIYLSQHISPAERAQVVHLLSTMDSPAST

| Structure (SMILES) | IC50 [nM] |
| --- | --- |
| CC(C)OC(=O)c1ccc(NS(=O)(=O)c2ccc3nc(-c4ccccc4F)[nH]c3c2)cc1 [Example 502, isopropyl 4-(2-(2-fluorophenyl)-1H-benzo[d]imidazole-6-sulfonamido)benzoate] | 1280 |
| Cn1c(C2CC2)c(C#N)c2ccc(S(=O)(=O)N[C@H]3CC[C@H](C(=O)N4CCCC4C(C)(C)C)CC3)cc21 (stereo partly drawn) [Example 390, N-((1r,4r)-4-(2-tert-butylpyrrolidine-1-carbonyl)cyclohexyl)-3-cyano-2-cyclopropyl-1-methyl-1H-indole-6-sulfonamide] | 10 |
| C[C@@H](NC(=O)[C@H]1CC[C@H](NS(=O)(=O)c2ccc3[nH]c(CC(=O)O)nc3c2)CC1)c1ccc(F)cc1 [Example 668, 2-(5-(N-((1R,4r)-4-((R)-1-(4-fluorophenyl)ethylcarbamoyl)cyclohexyl)sulfamoyl)-1H-benzo[d]imidazol-2-yl)acetic acid] | 124 |
| CC(C)c1nnc([C@H]2CC[C@H](NS(=O)(=O)c3ccc4[nH]c(-c5ccccc5)nc4c3)CC2)o1 [Example 586, N-((1r,4r)-4-(5-isopropyl-1,3,4-oxadiazol-2-yl)cyclohexyl)-2-phenyl-1H-benzo[d]imidazole-5-sulfonamide] | 1300 |
| O=C(NCCO)[C@H]1CC[C@H](NS(=O)(=O)c2ccc3[nH]c(-c4ccccc4)nc3c2)CC1 [Example 621, (1r,4r)-N-(2-hydroxyethyl)-4-(2-phenyl-1H-benzo[d]imidazole-5-sulfonamido)cyclohexanecarboxamide] | 1520 |
| CN1CCN(c2ccc3cc(S(=O)(=O)NC4CCC(C(=O)N5CCNCC5c5ccccc5)CC4)ccc3n2)CC1 (stereo not drawn) [Example 259, 2-(4-methylpiperazin-1-yl)-N-((1r,4r)-4-(2-phenylpiperazine-1-carbonyl)cyclohexyl)quinoline-6-sulfonamide] | 450 |
| CC(NC(=O)[C@H]1CC[C@H](NS(=O)(=O)c2ccc3ccccc3c2)CC1)c1cccnc1 (stereo partly drawn) [Example 680, (1r,4r)-4-(naphthalene-2-sulfonamido)-N-(1-(pyridin-3-yl)ethyl)cyclohexanecarboxamide] | 240 |
| C[C@@H](NC(=O)[C@H]1CC[C@H](NS(=O)(=O)c2ccc3[nH]c(Nc4cccc(C#N)c4)nc3c2)CC1)c1ccccc1 [Example 570, (1r,4R)-4-(2-(3-cyanophenylamino)-1H-benzo[d]imidazole-5-sulfonamido)-N-((R)-1-phenylethyl)cyclohexanecarboxamide] | < 10 |
| CC(C)CNC(=O)[C@H]1CC[C@H](NS(=O)(=O)c2ccc3[nH]c(-c4ccccc4)nc3c2)CC1 [Example 629, (1r,4r)-N-isobutyl-4-(2-phenyl-1H-benzo[d]imidazole-5-sulfonamido)cyclohexanecarboxamide] | 1760 |
| O=C(NCc1cccnc1)[C@H]1CC[C@H](NS(=O)(=O)c2ccc3[nH]c(-c4ccccc4)nc3c2)CC1 [Example 640, (1r,4r)-4-(2-phenyl-1H-benzo[d]imidazole-5-sulfonamido)-N-(pyridin-3-ylmethyl)cyclohexanecarboxamide] | 960 |
| CC[C@H]1CCc2cc(S(=O)(=O)N[C@H]3CC[C@H](C(=O)N[C@H](C)c4ccc(F)cc4)CC3)ccc2N1 [Example 170, (1r,4R)-4-((S)-2-ethyl-1,2,3,4-tetrahydroquinoline-6-sulfonamido)-N-((R)-1-(4-fluorophenyl)ethyl)cyclohexanecarboxamide] | 90 |
| Cn1c(-c2ccc(CCC(=O)O)cc2)cc2ccc(S(=O)(=O)N[C@H]3CC[C@H](C(=O)N4CCCC4C(C)(C)C)CC3)cc21 (stereo partly drawn) [Example 395, 3-(4-(6-(N-((1r,4r)-4-(2-tert-butylpyrrolidine-1-carbonyl)cyclohexyl)sulfamoyl)-1-methyl-1H-indol-2-yl)phenyl)propanoic acid] | < 10 |
| CC(C)OC(=O)c1ccc(NS(=O)(=O)c2ccc3[nH]c(Nc4ccc5nsnc5c4)nc3c2)cc1 [Example 527, isopropyl 4-(2-(benzo[c][1,2,5]thiadiazol-5-ylamino)-1H-benzo[d]imidazole-5-sulfonamido)benzoate] | 169 |
| CC(C)(C)c1nnc(-c2ccc(NS(=O)(=O)c3ccc4[nH]c(-c5ccc(N6CCOCC6)cc5)nc4c3)cc2)o1 [Example 593, N-(4-(5-tert-butyl-1,3,4-oxadiazol-2-yl)phenyl)-2-(4-morpholinophenyl)-1H-benzo[d]imidazole-5-sulfonamide] | 1010 |
| Cn1c(C2CC2)cc2ccc(S(=O)(=O)N[C@H]3CC[C@](C)(C(=O)N4CCOCC4)CC3)cc21 [Example 24, 2-cyclopropyl-1-methyl-N-((1r,4r)-4-methyl-4-(morpholine-4-carbonyl)cyclohexyl)-1H-indole-6-sulfonamide] | 230 |

Now from value to molecule:

| IC50 [nM] | Structure (SMILES) |
| --- | --- |
| 838 | CC(C)OC(=O)c1ccc(NS(=O)(=O)c2ccc3nc(-c4ccc(S(C)(=O)=O)cc4)[nH]c3c2)cc1 [Example 514, isopropyl 4-(2-(4-(methylsulfonyl)phenyl)-1H-benzo[d]imidazole-6-sulfonamido)benzoate] |
| 55 | C[C@H]1COCCN1C(=O)[C@H]1CC[C@H](NS(=O)(=O)c2ccc3c(Cl)c(C4CC4)n(C)c3c2)CC1 [Example 426, 3-chloro-2-cyclopropyl-1-methyl-N-((1S,4r)-4-((S)-3-methylmorpholine-4-carbonyl)cyclohexyl)-1H-indole-6-sulfonamide] |
| 10 | COC(=O)c1ccc(-c2cc3ccc(S(=O)(=O)N[C@H]4CC[C@H](C(=O)N[C@H](C)c5ccc(F)cc5)CC4)cc3[nH]2)c(C)c1 [Example 300] |
| 370 | O=C([C@H]1CC[C@H](NS(=O)(=O)c2ccc3[nH]c(-c4ccccc4)nc3c2)CC1)N1CCc2ccccc2C1 [Example 616, 2-phenyl-N-((1r,4r)-4-(1,2,3,4-tetrahydroisoquinoline-2-carbonyl)cyclohexyl)-1H-benzo[d]imidazole-5-sulfonamide] |
| 50 | C[C@@H](NC(=O)[C@H]1CC[C@H](NS(=O)(=O)c2ccc3nc(N4CCN(C)CC4)ccc3c2)CC1)c1ccc(F)cc1 [Example 38, (1r,4R)-N-((R)-1-(4-fluorophenyl)ethyl)-4-(2-(4-methylpiperazin-1-yl)quinoline-6-sulfonamido)cyclohexanecarboxamide] |
| 290 | C[C@@H](NC(=O)[C@H]1CC[C@H](NS(=O)(=O)c2ccc3c(c2)CCC(=O)N3)CC1)c1ccc(F)cc1 [Example 110, (1r,4R)-N-((R)-1-(4-fluorophenyl)ethyl)-4-(2-oxo-1,2,3,4-tetrahydroquinoline-6-sulfonamido)cyclohexanecarboxamide] |
| 139 | CC(C)(C)c1nnc([C@H]2CC[C@H](NS(=O)(=O)c3ccc4[nH]c(Nc5ccc(N6CCOCC6)cc5)nc4c3)CC2)o1 [Example 600, N-((1r,4r)-4-(5-tert-butyl-1,3,4-oxadiazol-2-yl)cyclohexyl)-2-(4-morpholinophenylamino)-1H-benzo[d]imidazole-5-sulfonamide] |
| 130 | COCCOc1ccc(-c2cc3ccc(S(=O)(=O)N[C@H]4CC[C@H](C(=O)N5CCOC(C)(C)C5)CC4)cc3n2C)cc1 [Example 450, N-((1r,4r)-4-(2,2-dimethylmorpholine-4-carbonyl)cyclohexyl)-2-(4-(2-methoxyethoxy)phenyl)-1-methyl-1H-indole-6-sulfonamide] |
| 10 | C[C@@H](NC(=O)[C@H]1CC[C@H](NS(=O)(=O)c2ccc3cc(-c4ccccc4C#N)[nH]c3c2)CC1)c1ccc(F)cc1 [Example 307, (1r,4R)-4-(2-(2-cyanophenyl)-1H-indole-6-sulfonamido)-N-((R)-1-(4-fluorophenyl)ethyl)cyclohexanecarboxamide] |
| < 10 | COCCc1ccc(-c2[nH]c3cc(S(=O)(=O)N[C@H]4CC[C@H](C(=O)N5CCOC[C@@H]5C(C)C)CC4)ccc3c2Cl)cc1 [Example 461, 3-chloro-N-((1S,4r)-4-((S)-3-isopropylmorpholine-4-carbonyl)cyclohexyl)-2-(4-(2-methoxyethyl)phenyl)-1H-indole-6-sulfonamide] |
| 40 | Cn1c(-c2ccccc2)cc2ccc(S(=O)(=O)N[C@H]3CC[C@H](C(=O)N4CCOC(C)(C)C4)CC3)cc21 [Example 442, N-((1r,4r)-4-(2,2-dimethylmorpholine-4-carbonyl)cyclohexyl)-1-methyl-2-phenyl-1H-indole-6-sulfonamide] |
| < 10 | CC(C)(CO)[C@@H](NC(=O)[C@H]1CC[C@H](NS(=O)(=O)c2ccc3c(Cl)c(-c4ccccc4)[nH]c3c2)CC1)c1ccccc1 [Example 478, (1r,4S)-4-(3-chloro-2-phenyl-1H-indole-6-sulfonamido)-N-((S)-3-hydroxy-2,2-dimethyl-1-phenylpropyl)cyclohexanecarboxamide] |
| < 10 | C[C@H]1COCCN1C(=O)[C@H]1CC[C@H](NS(=O)(=O)c2ccc3c(Cl)c(-c4ccc(CCC(=O)O)cc4)n(C)c3c2)CC1 [Example 428, 3-(4-(3-chloro-1-methyl-6-(N-((1S,4r)-4-((S)-3-methylmorpholine-4-carbonyl)cyclohexyl)sulfamoyl)-1H-indol-2-yl)phenyl)propanoic acid] |
| 515 | Cc1cc(CO)ccc1-c1cc2ccc(S(=O)(=O)N[C@H]3CC[C@H](C(=O)N4CCNC(C(F)(F)F)C4)CC3)cc2n1C (stereo partly drawn) [Example 318, 2-(4-(hydroxymethyl)-2-methylphenyl)-1-methyl-N-((1r,4r)-4-(3-(trifluoromethyl)piperazine-1-carbonyl)cyclohexyl)-1H-indole-6-sulfonamide] |
| 180 | C[C@@H](NC(=O)[C@H]1CC[C@H](NS(=O)(=O)c2ccc3cc(Cl)ccc3c2)CC1)c1cccnc1 [Example 684, (1r,4R)-4-(6-chloronaphthalene-2-sulfonamido)-N-((R)-1-(pyridin-3-yl)ethyl)cyclohexanecarboxamide] |
